We go through 1 compound from patent publication US11154540B2, “Methods of treating ophthalmic disease/disorder or injury with ibudilast” (MediciNova, Inc., priority 2018, dated 2021).

The structures appear in SMILES notation. “Also recorded” adds a separate entry of the source.

The conditions of data set [1]: Sanftner et al., Xenobiotica 2009 39: 964-977; cited from earlier work.
Data set [2] deals with subjects with primary or secondary progressive multiple sclerosis. As to the kind of experiment: Optical coherence tomography (OCT) outcomes in the SPRINT-MS phase II randomized, double-blind, placebo-controlled trial. The class given is in vivo, human. How it is done:
This was a multicenter, randomized, double-blind, placebo-controlled, parallel-group study designed to evaluate the safety, tolerability and activity of ibudilast administered twice daily over a 96 week period in subjects with primary or secondary progressive multiple sclerosis. The primary objectives of the study were: • to evaluate the activity of ibudilast (100 mg/d) versus placebo at 96 weeks as measured by quantitative magnetic resonance imaging (MRI) analysis for whole brain atrophy using brain parenchymal fraction (BPF); • to evaluate the safety and tolerability of ibudilast (100 mg/d) versus placebo administered orally in subjects with primary and secondary progressive multiple sclerosis; and • to study the effect of ibudilast on macular measures from the SPRINT-MS phase II trial of ibudilast in progressive MS. The major secondary objectives were to evaluate the activity of ibudilast at 96 weeks versus placebo as measured by: • Diffusion tensor imaging (DTI) in descending pyramidal white matter tracts; • Magnetization transfer ratio (MTR) imaging in normal-appearing brain tissue; • Retinal nerve fiber layer as measured by Optical coherence tomography (OCT); and • Cortical atrophy as measured by cortical longitudinal atrophy detection algorithm ([…] total of 255 male and female subjects from 21 to 65 years old, inclusive, were enrolled into one of two treatment arms (ibudilast 100 mg/d or matching-placebo). Study population for SPRINT-MS was a mix of primary (53%) and secondary progressive (47%) MS, average age 56 years and median expanded disability status scale (EDSS)=6.0 at baseline. Randomization of subjects was stratified by disease status ([…]), and by immunomodulating therapy status: “untreated”, glatiramer acetate (GA), or interferon-beta. Subjects were allowed to continue using of interferon-beta (IFN-β) or glatiramer acetate while participating in this study. During the study, subjects were allowed to change medications from one injectable to the other. Pegylated interferon beta-1 were also allowed (if approved by the FDA). Inhaled and topical steroids are allowed. If a relapse episode occurred, a single course of systemic corticosteroids was permitted, as prescribed by the treating neurologist. Subjects returned to the clinic for follow-up visits on a regular basis at Week 4, 8, 12, 24, 36, 48, 60, 72, 84 and 96. The double-blind Treatment Phase consisted of a Baseline visit followed by 10 scheduled clinic visits. The Baseline Visit had to have occurred within 45 days following the Screening Visit. At the Baseline Visit (Day 1), subjects who completed all of the screening assessments and continued to meet eligibility criteria were randomized to one of two treatment groups (ibudilast 100 mg/d or placebo) in a 1:1 ratio. […] Subjects took their first dose of study medication (30 mg ibudilast or placebo) on the evening of the Baseline Visit (Day 1). On the morning of Day 2, all subjects begun a 3 capsule BID dosing regimen through Day 14. Subjects randomized to ibudilast started at 60 mg/d (30 mg BID) on Day 2 and remained on 60 mg/d through Day 14. Beginning on Day 15, all subjects increased dosing to 5 capsules BID regimen; those randomized to the ibudilast treatment arm were taking 100 mg/d. After Day 15, subjects with intolerable side-effects (e.g., nausea, diarrhea, vertigo) were allowed to reduced their dose to either 4 capsules twice a day (80 mg/d for those taking ibudilast) or 3 capsules twice a day (60 mg/d for those taking ibudilast). Subjects with intolerable side-effects (e.g., nausea, diarrhea, vertigo) at the end of Day 14 were allowed to continue taking 3 capsules twice a day at the Investigator's discretion. At the Investigator's discretion, the daily dose of ibudilast were potentially adjusted between 3 capsules twice a day, 4 capsules twice a day, and 5 capsules twice a day over the first 8 weeks of treatment. […]

With `CC(C)C(=O)c1c(C(C)C)nn2ccccc12` [ibudilast, 3-isobutyryl-2-isopropylpyrazolo[1,5-a]pyridine], the “CNS distribution / penetration (in words)” value in data set [1] is “distributes well to the CNS; also recorded: good CNS penetration”. For the same compound, the “macular volume loss and GCIP layer thinning (in words)” value in data set [2] (Cirrus OCT) is “favorable changes towards reduced macular volume loss and GCIP layer thinning”. Further, the “rate of macular volume loss, between-group difference per year” value stood at 0.0204 mm^3 in data set [2] (Cirrus OCT, ibudilast vs placebo, 95% CI: −0.0090 to 0.0499) and 0.0316 mm^3 in data set [2] (Spectralis OCT, ibudilast vs placebo, 95% CI: 0.0008 to 0.0623). Further, in data set [2] (Cirrus OCT, ibudilast vs placebo, 95% CI: −0.1189 to 1.0578), the ganglion cell-inner plexiform layer thinning, between-group difference per year was 0.469 µm/year. Further, in data set [2] (Spectralis OCT over 96 weeks), the “annual macular volume loss compared to placebo (in words)” value was “slower”. Moreover, the “estimated rate of macular volume change per year” value in data set [2] (patients followed with Cirrus OCT, 95% CI: −0.02167 to 0.020866, placebo −0.02083, p=0.1734) is listed as −0.0004 mm^3; in data set [2] (patients followed with Spectralis OCT, 95% CI: −0.02693 to 0.01688, placebo −0.03659, p=0.044), −0.00503 mm^3.
